The subject of the experiment is L1210 leukemia ip in BDF1 mice, survival T/C. In words: NCI In Vivo Anticancer Drug Screen. Data for tumor model L1210 Leukemia (intraperitoneal) in B6D2F1 (BDF1) mice. The settings on record: endpoint: mean survival time, higher = longer survival. In a few lines:
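Tumor cells were implanted, animals were treated, and survival was followed. The result divides the treated measurement by the vehicle-control measurement.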

Setting [1] is: dose: 12.5 mg/kg/injection, schedule: Q04DX003 (ip), vehicle: Klucel (hydroxypropylcellulose) (HPC).
[2] abbreviates: dose: 25.0 mg/kg/injection, schedule: Q04DX003 (ip), vehicle: Klucel (hydroxypropylcellulose) (HPC).
The mark [3] stands for this setting: dose: 50.0 mg/kg/injection, schedule: Q04DX003 (ip), vehicle: Klucel (hydroxypropylcellulose) (HPC).
Where [4] appears, read: dose: 6.25 mg/kg/injection, schedule: Q01DX009 (ip), vehicle: Klucel (hydroxypropylcellulose) (HPC).
The mark [5] stands for this setting: dose: 12.5 mg/kg/injection, schedule: Q01DX009 (ip), vehicle: Klucel (hydroxypropylcellulose) (HPC).
Where [6] appears, read: dose: 25.0 mg/kg/injection, schedule: Q01DX009 (ip), vehicle: Klucel (hydroxypropylcellulose) (HPC).
Where [7] appears, read: dose: 50.0 mg/kg/injection, schedule: Q01DX009 (ip), vehicle: Klucel (hydroxypropylcellulose) (HPC).
Where [8] appears, read: dose: 100.0 mg/kg/injection, schedule: Q01DX009 (ip), vehicle: Klucel (hydroxypropylcellulose) (HPC).
Setting [9] is: dose: 100.0 mg/kg/injection, schedule: Q04DX003 (ip), vehicle: Klucel (hydroxypropylcellulose) (HPC).
The mark [10] stands for this setting: dose: 100.0 mg/kg/injection, schedule: Q04DX003 (ip), vehicle: saline with Tween-80.
The mark [11] stands for this setting: dose: 200.0 mg/kg/injection, schedule: Q04DX003 (ip), vehicle: saline with Tween-80.
Setting [12] is: dose: 400.0 mg/kg/injection, schedule: Q04DX003 (ip), vehicle: saline with Tween-80.
[13] abbreviates: dose: 100.0 mg/kg/injection, schedule: Q01DX001 (ip), vehicle: saline.
Setting [14] is: dose: 200.0 mg/kg/injection, schedule: Q01DX001 (ip), vehicle: saline.

The structures appear in SMILES notation. “And” between values parts separate entries of the source, which are not always exact repeats. Equal entries are not always repeated. Inconclusive results and toxic doses are left out.

As to `CCCCCCCCCCCCSCCOC(=O)C1C2CCC(O2)C1C(=O)O` (stereo unspecified), the T/C was 96 % of control under setting [1], 100 % of control under setting [2] and 90 % of control under setting [3].

With `O=C(CCCN1CC=C(n2c(=O)[nH]c3ccccc32)CC1)c1ccc(F)cc1`, the T/C was 100 % of control under setting [4]; 103 % of control (dose: 6.25 mg/kg/injection, schedule: Q04DX003 (ip), vehicle: Klucel (hydroxypropylcellulose) (HPC)); 104 % of control under setting [5]; 103 % of control under setting [1]; 98 % of control under setting [6]; 103 % of control under setting [2]. Besides, the T/C was 102 % of control under setting [7]; 106 % of control under setting [3]; 94 % of control under setting [8]; 101 % of control and 111 % of control under setting [9].

For `Oc1ccc(N=Cc2c(O)ccc3ccccc23)cc1`, the T/C (dose: 200.0 mg/kg/injection, schedule: Q01DX001 (ip), vehicle: other) is 90 % of control and the T/C (dose: 400.0 mg/kg/injection, schedule: Q01DX001 (ip), vehicle: other) is 91 % of control.

Take `Cc1ccc(C)c(C(=O)c2ccccc2C(=O)O)c1`: the T/C (dose: 10.0 mg/kg/injection, schedule: Q01DX009 (ip), vehicle: saline) is 101 % of control; the T/C (dose: 100.0 mg/kg/injection, schedule: Q01DX009 (ip), vehicle: saline sonified) was 98 % of control; the T/C under setting [10] is 90 % of control; the T/C (dose: 200.0 mg/kg/injection, schedule: Q01DX009 (ip), vehicle: saline sonified) was 94 % of control; the T/C (dose: 200.0 mg/kg/injection, schedule: Q01DX009 (ip), vehicle: saline) is 103 % of control; the T/C under setting [11] is 94 % of control. The T/C is, setting by setting: (dose: 400.0 mg/kg/injection, schedule: Q01DX009 (ip), vehicle: saline sonified) 105 % of control; (dose: 400.0 mg/kg/injection, schedule: Q01DX009 (ip), vehicle: saline) 98 % of control; under setting [12], 90 % of control.

Regarding `Cn1cnc([N+](=O)[O-])c1[Se]c1ncnc2c1ncn2C1OC(CO)C(O)C1O` (stereo unspecified), the T/C reads like this: (dose: 12.5 mg/kg/injection, schedule: Q01DX005 (ip), vehicle: saline) 104 % of control; (dose: 25.0 mg/kg/injection, schedule: Q01DX005 (ip), vehicle: saline) 98 % of control.

For `CC(=O)c1ccc2c(c1)sc1cc(C(C)=O)ccc12`, the T/C was 96 % of control (dose: 50.0 mg/kg/injection, schedule: Q01DX001 (ip), vehicle: carboxymethylcellulose (CMC)); 100 % of control (dose: 100.0 mg/kg/injection, schedule: Q01DX001 (ip), vehicle: carboxymethylcellulose (CMC)); 90 % of control (dose: 200.0 mg/kg/injection, schedule: Q01DX001 (ip), vehicle: carboxymethylcellulose (CMC)); 90 % of control (dose: 400.0 mg/kg/injection, schedule: Q01DX001 (ip), vehicle: carboxymethylcellulose (CMC)).

For `NC(=O)c1cccc(Cl)n1`, the T/C reads like this: (dose: 12.5 mg/kg/injection, schedule: Q04DX002 (ip), vehicle: Klucel (hydroxypropylcellulose) (HPC)) 92 % of control; (dose: 25.0 mg/kg/injection, schedule: Q04DX002 (ip), vehicle: Klucel (hydroxypropylcellulose) (HPC)) 87 % of control; (dose: 50.0 mg/kg/injection, schedule: Q04DX002 (ip), vehicle: Klucel (hydroxypropylcellulose) (HPC)) 90 % of control.

As for `Cc1ncc(CO)c(Cc2ccc(N(C)C)cc2)c1O`, the T/C is 88 % of control (dose: 100.0 mg/kg/injection, schedule: Q04DX002 (ip), vehicle: saline); 103 % of control (dose: 200.0 mg/kg/injection, schedule: Q04DX002 (ip), vehicle: saline); 95 % of control (dose: 400.0 mg/kg/injection, schedule: Q04DX002 (ip), vehicle: saline).

With `CCCCSP(=S)(SCCCC)SCCCC`, the T/C reads like this: (dose: 100.0 mg/kg/injection, schedule: Q01DX001 (ip), vehicle: Klucel (hydroxypropylcellulose) (HPC)) 94 % of control; (dose: 100.0 mg/kg/injection, schedule: Q01DX009 (ip), vehicle: saline with Tween-80) 105 % of control; (dose: 200.0 mg/kg/injection, schedule: Q01DX001 (ip), vehicle: Klucel (hydroxypropylcellulose) (HPC)) 94 % of control; (dose: 200.0 mg/kg/injection, schedule: Q01DX009 (ip), vehicle: saline with Tween-80) 105 % of control; (dose: 400.0 mg/kg/injection, schedule: Q01DX001 (ip), vehicle: Klucel (hydroxypropylcellulose) (HPC)) 97 % of control; (dose: 400.0 mg/kg/injection, schedule: Q01DX009 (ip), vehicle: saline with Tween-80) 102 % of control.

On to `C=C(Cl)COC(=S)S`, for which the T/C by setting is: under setting [13], 107 % of control; under setting [14], 103 % of control; (dose: 400.0 mg/kg/injection, schedule: Q01DX001 (ip), vehicle: saline) 100 % of control.

As for `COC(=O)C1C=Cc2ccccc21` (stereo unspecified), the T/C is 104 % of control under setting [10], 93 % of control under setting [11] and 102 % of control under setting [12].

Turning to `N#CC(C#N)=Cc1ccc([N+](=O)[O-])o1`, the T/C reads like this: (dose: 1.56 mg/kg/injection, schedule: Q04DX003 (ip), vehicle: saline) 103 % of control; (dose: 3.12 mg/kg/injection, schedule: Q01DX009 (ip), vehicle: Klucel (hydroxypropylcellulose) (HPC)) 103 % of control; (dose: 3.12 mg/kg/injection, schedule: Q04DX003 (ip), vehicle: saline) 92 % of control; under setting [4], 104 % of control; (dose: 6.25 mg/kg/injection, schedule: Q04DX003 (ip), vehicle: saline) 103 % of control.

As to `C=CCc1ccc(OC(=O)Nc2ccc([N+](=O)[O-])cc2OC)c(OC)c1`, the T/C was 96 % of control under setting [8]; 93 % of control (dose: 200.0 mg/kg/injection, schedule: Q01DX009 (ip), vehicle: Klucel (hydroxypropylcellulose) (HPC)); 96 % of control (dose: 400.0 mg/kg/injection, schedule: Q01DX009 (ip), vehicle: Klucel (hydroxypropylcellulose) (HPC)).

`CS(=O)(=O)OCCCCCCCCOS(C)(=O)=O`: the T/C (dose: 3.0 mg/kg/injection, schedule: Q01DX009 (ip), vehicle: Klucel (hydroxypropylcellulose) (HPC)) was 100 % of control; the T/C (dose: 5.0 mg/kg/injection, schedule: Q01DX009 (ip), vehicle: Klucel (hydroxypropylcellulose) (HPC)) is 102 % of control; the T/C (dose: 11.0 mg/kg/injection, schedule: Q01DX009 (ip), vehicle: Klucel (hydroxypropylcellulose) (HPC)) was 118 % of control; the T/C under setting [5] is 108 % of control; the T/C under setting [6] was 114 % of control; the T/C under setting [2] was 112 % of control. Also, the T/C runs as follows: (dose: 37.5 mg/kg/injection, schedule: Q01DX009 (ip), vehicle: Klucel (hydroxypropylcellulose) (HPC)) 163 % of control; under setting [7], 93 % of control; under setting [3], 116 % of control; under setting [9], 116 % of control.

`CCCCC[CH2][Sn]([I])([CH2]C)[CH2]C`: the T/C by setting is: (dose: 1.56 mg/kg/injection, schedule: Q01DX009 (ip), vehicle: saline) 95 % of control; (dose: 3.13 mg/kg/injection, schedule: Q01DX009 (ip), vehicle: saline) 90 % of control.

For the compound `OC(CC(O)(C(F)(F)F)C(F)(F)F)CC(O)(C(F)(F)F)C(F)(F)F`, the T/C (dose: 25.0 mg/kg/injection, schedule: Q01DX009 (ip), vehicle: saline with Tween-80) was 101 % of control and the T/C under setting [10] was 95 % of control.

On to `O=Cc1cc2c(cc1Cl)OCO2`, for which the T/C by setting is: under setting [10], 92 % of control; under setting [11], 86 % of control; under setting [12], 97 % of control.

For the compound `[Si]c1ccccc1`, the T/C runs as follows: (dose: 100.0 mg/kg/injection, schedule: Q04DX002 (ip), vehicle: saline with Tween-80) 102 % of control; (dose: 200.0 mg/kg/injection, schedule: Q04DX002 (ip), vehicle: saline with Tween-80) 93 % of control; (dose: 400.0 mg/kg/injection, schedule: Q04DX002 (ip), vehicle: saline with Tween-80) 98 % of control.

With `O=C(NCCF)NC1CCC(C(=O)O)CC1` (stereo unspecified), the T/C runs as follows: (dose: 50.0 mg/kg/injection, schedule: Q01DX001 (ip), vehicle: saline) 111 % of control; under setting [13], 107 % of control; under setting [14], 96 % of control.

Consider `O=[N+]([O-])c1ccc2[nH]c(=S)sc2c1`, for which the T/C under setting [6] was 95 % of control and the T/C under setting [7] is 95 % of control.

The values above are taken from PubChem BioAssay AID248 (DTP/NCI, 2004).
